Values of other authors in patent US11058138B2, “Composition for calcium supplementation” (ABIOGEN PHARMA S.P.A., priority 2017, dated 2021).

Details: versus calcium carbonate

SMILES: O=C([O-])CC(O)(CC(=O)[O-])C(=O)[O-].O=C([O-])CC(O)(CC(=O)[O-])C(=O)[O-].[Ca+2].[Ca+2].[Ca+2] [calcium citrate]
- Bioavailability higher than that of calcium carbonate: 20-30%
